Structures can show the parent of a compound that is named as a salt.
Key:
[1] = system: IL-17 production by CD4 T cells; assay: Human Th17 assay (IL-17 production by CD4 T cells); type: cell-based; conditions: CD4+ T cells from healthy donors, Th17 differentiation, 3 days
From the text: The human Th17 assay tests the effect of RORγt modulatory compounds on IL-17 production by CD4 T cells under conditions which favor Th17 differentiation. Total CD4^+ T cells were isolated from the peripheral blood mononuclear cells (PBMC) of healthy donors using a CD4^+ T cell isolation kit II, following the manufacturer's instructions (Miltenyi Biotec). Cells were resuspended in a medium of RPMI-1640 supplemented with 10% fetal bovine serum, penicillin, streptomycin, […], and β-mercaptoethanol and were added to 96-well plates at 1.5x10^5 per 100 µL per well. 50 µL of compound at titrated concentrations in DMSO were added into each well at final DMSO concentration at 0.2%. Cells were incubated for 1 hour, then 50 µL of Th17 cell differentiation medium was added to each well. The final concentrations of antibodies and cytokines (R&D Systems) in differentiation medium were: 3x10^6/mL anti-CD3/CD28 beads (prepared using human T cell activation/expansion kit, Miltenyi Biotec), 10 µg/mL anti-IL4, 10 µg/mL anti-IFNγ, 10 ng/mL IL1β, 10 ng/mL IL23, 50 ng/mL IL6, 3 ng/mL TGFβ and 20 U/mL IL2. Cells were cultured at 37 °C and 5% CO2 for 3 days. Supernatants were collected and the accumulated IL-17 in culture was measured by using MULTI-SPOT® Cytokine Plate following manufacture's instruction (Meso Scale Discovery). The plate was read using Sector Imager 6000, and IL-17 concentration was extrapolated from the standard curve. The IC50s were determined by GraphPad.

human RORγt LBD = molecular target: T1, human RORγt LBD (Homo sapiens, UniProt P51449); assay: RORγt reporter assay (GAL4-RORγt LBD luciferase in HEK293T cells); type: cell-based; conditions: for IC50: 24 hours compound treatment; for inhibition at 6 µM: HEK-293T
T1 construct: expressed in transfected cells
T1 sequence (P51449 258-518): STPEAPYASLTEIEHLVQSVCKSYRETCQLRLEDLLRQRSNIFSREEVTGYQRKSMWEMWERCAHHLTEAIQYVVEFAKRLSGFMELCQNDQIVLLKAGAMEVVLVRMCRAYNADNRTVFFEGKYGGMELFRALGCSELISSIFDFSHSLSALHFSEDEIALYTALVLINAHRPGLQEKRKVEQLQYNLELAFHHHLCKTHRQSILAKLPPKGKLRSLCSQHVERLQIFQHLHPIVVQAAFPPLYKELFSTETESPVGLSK
From the text: A reporter assay was used to test functional activity of RORγt modulatory compounds on transcriptional activation driven by the RORγt LBD. Cells used in the assay were co-transfected with two constructs. The first construct, pBIND-RORγt LBD, contained the wild type human RORγt LBD fused to the DNA binding domain of the GAL4 protein. The second construct, pGL4.31 (Promega Cat no. C935A), contained multiple GAL4 responsive DNA elements upstream of firefly luciferase. […] The mutant construct was called pBIND-RORγt-AF2.
The pBIND vector contains the GAL4 DNA Binding Domain (GAL4 DBD) and the renilla luciferase gene under control of the SV40 promoter. Renilla luciferase expression serves as a control for transfection efficiency and cell viability.
The reporter assay was performed by transiently transfecting HEK293T cells with 5 µg of pBIND-RORγt LBD or pBIND-RORγt LBD-AF2 and 5 µg pGL4.31 (Promega Cat no. C935A) using Fugene 6 (Invitrogen Cat no. E2691) at a 1:6 ratio of DNA: Fugene 6 in a T-75 flask in which cells were at least 80% confluent. Twenty four hours after bulk transfection, cells were plated into 96-well plates at 50,000 cells/well in phenol-red free DMEM containing 5% Lipid Reduced FCS and Pen/Strep. Six hours after plating, cells were treated with compounds for 24 hours. Media was removed and cells were lysed with 50 µL 1x Glo Lysis Buffer (Promega). Dual Glo Luciferase Reagent (50 µL/well) was then added and firefly luciferase luminescence was read on an Envision after a ten minute incubation. Finally, Stop and Glo reagent (50 µL/well) was added and renilla luciferase luminescence was read on an Envision after a ten minute incubation. To calculate the effect of compounds on RORγt activity, the ratio of firefly to renilla luciferase was determined and plotted against compound concentration. Agonist compounds increase RORγt-driven luciferase expression, and antagonist or inverse agonist compounds decrease luciferase expression.

[2] = molecular target: T2, human RORγt ligand binding domain (RORγt LBD) (Homo sapiens, UniProt P51449); assay: RORγt ThermoFluor assay (thermal shift binding affinity); conditions: 0.065 mg/mL RORγt, pH 7.0; estimated from thermal shift
T2 construct: made in house; host or cells: E. coli (pHIS1, modified pET vector)
T2 sequence (P51449 258-518): T1 sequence (P51449 258-518)
Procedure: This approach is applicable to a wide variety of systems, and rigorous in theoretical interpretation through quantitation of equilibrium binding constants (KD).
The shift in the melting point described as a ΔTm is proportional to the concentration and affinity of the ligand. The compound potency may be compared as a rank order of either ΔTm values at a single compound concentration or in terms of KD values, estimated from concentration response curves.
ThermoFluor® experiments were carried out using instruments owned by Janssen Research and Discovery, L.L.C. through its acquisition of 3-Dimensional Pharmaceuticals, Inc. 1,8-ANS (Invitrogen) was used as a fluorescent dye. Protein and compound solutions are dispensed into black 384-well polypropylene PCR microplates (Abgene) and overlayed with silicone oil (1 µL, Fluka, type DC 200) to prevent evaporation.
Bar-coded assay plates are robotically loaded onto a thermostatically controlled PCR-type thermal block and then heated at a typical ramp-rate of 1 °C/min for all experiments. Fluorescence was measured by continuous illumination with UV light (Hamamatsu LC6) supplied via fiber optic and filtered through a band-pass filter (380-400 nm; >6 OD cutoff). Fluorescence emission of the entire 384-well plate was detected by measuring light intensity using a CCD camera (Sensys, Roper Scientific) filtered to detect 500 ± 25 nm, resulting in simultaneous and independent readings of all 384 wells. Images were collected at each temperature, and the sum of the pixel intensity in a given area of the assay plate was recorded versus temperature. Reference wells contained RORγt without compounds, and the assay conditions were as follows: • 0.065 mg/mL RORyt • 60 µM 1,8-ANS • 100 mM Hepes, pH 7.0 • 10 mM NaCl • 2.5 mM GSH • 0.002% Tween-20
Project compounds were arranged in a pre-dosed mother plate (Greiner Bio-one) wherein compounds are serially diluted in 100% DMSO by 1:2 from a high concentration of 10 mM over 12 columns within a series (column 12 is a reference well containing DMSO, no compound). The compounds were robotically dispensed directly into assay plates (1x = 46 nL) using a Hummingbird capillary liquid handling instrument (Digilab). Following compound dispense, protein and dye in buffer was added to achieve the final assay volume of 3 µL, followed by 1 µL of silicone oil.

Compound | IC50 (human RORγt LBD) [nM] | inhibition at 6 µM (human RORγt LBD) [%] | Kd [2] [nM] | IC50 [1] [nM] | IC50 ([1]; Homo sapiens, 72 h) [nM] | IC50 ([1]; Homo sapiens, CD4+ T, 72 h) [nM]
Cn1cncc1C(O)(c1ccc(C(F)(F)F)nc1)c1ccc2nc(N3CCCC3)c(Oc3ccc(C#N)cc3)c(Cl)c2c1 (stereo not shown) [Example 2c] |  |  |  | 100 |  | 
Cn1cncc1C(O)(c1ccc(C(F)(F)F)nc1)c1ccc2nc(N3CCCC3)c(Oc3ccc(C#N)cc3)c(Cl)c2c1 (stereo not shown) [Example 2b] |  |  |  | 320 |  | 
Cn1cncc1C(O)(c1ccc(C(F)(F)F)nc1)c1ccc2nc(N3CCCC3)c(Oc3ccc(C#N)cc3)c(Cl)c2c1 (racemic) [Example 2a, 4-((4-Chloro-6-(hydroxy(1-methyl-1H-imidazol-5-yl)(6-(trifluoromethyl)pyridin-3-yl)methyl)-2-(pyrrolidin-1-yl)quinolin-3-yl)oxy)benzonitrile] |  |  |  |  |  | 88
CCN(CC)c1nc2ccc(C(O)(c3ccccn3)c3cncn3C)cc2c(Cl)c1Oc1ccccc1 (stereo not shown) [Example 3b] | 200 | 101 | 140 |  | 180 | 

Now from value to compound, other results behind:

IC50 (human RORγt LBD) [nM] | inhibition at 6 µM (human RORγt LBD) [%] | Kd [2] [nM] | Compound | IC50 [1] [nM] | IC50 ([1]; Homo sapiens, 72 h) [nM] | IC50 ([1]; Homo sapiens, CD4+ T, 72 h) [nM]
180 | 101 | 58 | Cn1cncc1C(O)(c1ccc(Cl)cc1)c1ccc2nc(N3CCC3=O)c(Oc3ccc(C#N)cc3)c(Cl)c2c1 (stereo not shown) [Example 1, 4-((4-chloro-6-((4-chlorophenyl)(hydroxy)(1-methyl-1H-imidazol-5-yl)methyl)-2-(2-oxoazetidin-1-yl)quinofin-3-yl)oxy)benzonitrile · TFA] |  | 300 | 
270 |  | > 63000 | CCN(CC)c1nc2ccc(C(O)(c3ccccn3)c3cncn3C)cc2c(C#N)c1Oc1ccccc1 (single isomer, unassigned) [Example 5c] |  | 150 | 
 | 72 |  | CC(C)(C)OC(=O)N(c1ccccc1)c1c(Cl)nc2ccc(C(O)(c3cccnc3)c3cccc(Cl)c3)cc2c1Cl (stereo not shown) [Example 7, tert-Butyl (2,4-dichloro-6-((3-chlorophenyl)(hydroxy)(pyridin-3-yl)methyl)quinolin-3-yl)(phenyl)carbamate] |  |  | 
1100 |  | 460 | CCN(CC)c1nc2ccc(C(O)(c3ccccn3)c3cncn3C)cc2c(Cl)c1Oc1ccccc1 (stereo not shown) [Example 3c] |  |  | 
870 | 102 |  | CCN(CC)c1nc2ccc(C(O)(c3ccccn3)c3cncn3C)cc2c(C#N)c1Oc1ccccc1 (stereo not shown) [Example 5b] |  |  | 
> 6000 | 41 | 11000 | CC(C)OC1CN(c2nc3ccc(C(O)(c4ccc(C(F)(F)F)nc4)c4cncn4C)cc3c(Cl)c2Oc2ccc(Cl)cc2)C1 (stereo not shown) [Example 6, (4-Chloro-3-(4-chlorophenoxy)-2-(3-isopropoxyazetidin-1-yl)quinolin-6-yl)(1-methyl-1H-imidazol-5-yl)(6-(trifluoromethyl)pyridin-3-yl)methanol] |  |  | 

Reference: patent EP3083561B1, “HETEROARYL LINKED QUINOLINYL MODULATORS OF RORYT” (Janssen Pharmaceutica NV, priority 2013, dated 2015)
